Results: patent US10913757B2, “Hydroxycinnamic derivatives, methods and uses thereof” (UNIVERSIDADE DO PORTO, priority 2016, dated 2021)
Entries after “also recorded” stand apart in the source; their conditions may differ.

Key:
[1] = Iron (II) chelating properties, ferrozine assay; format: biochemical; settings: 100 μM, EDTA=100%
Experimental: In an embodiment, AntiOxCINs iron (II) chelating properties were evaluated by the ferrozine assay using ethylenediaminetetracetic acid (EDTA) as reference.
In an embodiment, AntiOxCINs iron chelating properties were evaluated by the spectrophotometric ferrozine method performed in a multiplate reader (Powerwave XS Microplate Reader) of Bio-Tech instruments.
In an embodiment, the AntiOxCINs iron chelating properties were evaluated as follows: in each well, a solution of the test compound (100 μM) and ammonium iron (II) sulphate in ammonium acetate (20 μM) were added, incubated for 10 min and the absorbance was read at 562 nm. Then, a freshly prepared solution of ferrozine (5 mM) was added to each well (96 μM final concentration). After a new incubation at 37° C. for 10 min period, the absorbance of [Fe(ferrozine)3]^2+ complex was measured at 562 nm. Blank wells were run using DMSO instead of the test compounds. EDTA was used as a reference. All compounds were tested at a final concentration of 100 μM. The absorbance of the first reading was subtracted to the final values to abolish any absorbance due to the test compounds. Data are means±SEM of three independent experiments and are expressed as % of Fe(II) chelation (EDTA=100%).

[2] = system: rat liver mitochondria (RLM); test: AntiOxCINs uptake by energised rat liver mitochondria (TPP-selective electrode); format: in vitro ADME; settings: FIG. 3
Experimental: In an embodiment, and as an example, mitochondrial AntiOxCINs uptake was assessed in isolated rat liver mitochondria (RLM) in response to the membrane potential. AntiOxCINs can accumulate inside mitochondria driven by the ΔΨ (FIG. 3A). Different AntiOxCINs accumulation outlines within the mitochondrial matrix have been noticed. […] However, the linear increase of AntiOxCINs lipophilicity was not directly translated into an increase in the ratio of mitochondrial matrix accumulation (FIG. 3B). The following ranking order was attained: AntiOxCIN1<AntiOxCIN2<[…]<AntiOxCIN3 (catechol series); AntiOxCIN4<AntiOxCIN7<AntiOxCIN6 (pyrogallol series) (FIG. 3C).
In an embodiment, the evaluation of AntiOxCINs functional mitochondrial toxicity profile was performed in rat liver mitochondria (RLM). RLM were prepared by tissue homogenization followed by differential centrifugations in ice-cold buffer containing 250 mM sucrose, 10 mM HEPES (pH 7.4), 1 mM EGTA, and 0.1% fat-free bovine serum albumin. After obtaining a crude mitochondrial preparation, pellets were washed twice and resuspended in washing buffer (250 mM sucrose and 10 mM HEPES, pH 7.4). The protein concentration was determined by the biuret assay using BSA as a standard.
In an embodiment, the AntiOxCINs mitochondria uptake by energized RLM was evaluated as follows: RLM (0.5 mg protein/mL) were incubated with AntiOxCINs at 37° C. under constant stirring in 1 mL of KCl medium (120 mM KCl, 10 mM HEPES, pH 7.2 and 1 mM EGTA). Five sequential 1 μM additions of each AntiOxCINs were performed to calibrate the electrode response in the presence of rotenone (1.5 μM). Then, succinate (10 mM) was added to generate AN. Valinomicin (0.2 μg/mL) was added at the end of the assay to dissipate AN. […] The mitochondrial accumulation ratio was calculated by the disappearance of AntiOxCINs from extra- to intramitochondrial medium assuming an intramitochondrial volume of 0.5 μL/mg protein and a binding correction for the mitochondrial uptake of TPP compounds.

[3] = system: rat liver mitochondria (RLM); test: Mitochondrial transmembrane electric potential (ΔΨ) of RLM, safranine fluorescence; format: biochemical
Experimental: In an embodiment, and as an example, AntiOxCINs and MitoQ toxicity effects on the mitochondrial bioenergetics, namely on RLM ΔΨ and mitochondrial respiration parameters, were measured. The […] represents the main component of the electrochemical gradient generated by mitochondrial respiration and accounts for more than 90% of the total available energy. For mitochondrial respiration assays, glutamate/malate (for complex I) and succinate (for complex II) were used as substrates. In addition, the mitochondrial oxidative phosphorylation coupling index, known as respiratory control ratio (RCR, state 3/state 4 respiration) and ADP/O index (the coupling between ATP synthesis and oxygen consumption) were also calculated. AntiOxCINs and MitoQ were tested at antioxidant-relevant concentrations, with 10 μM being the highest concentration.
In an embodiment, the evaluation of AntiOxCINs functional mitochondrial toxicity profile was performed in rat liver mitochondria (RLM). […] The protein concentration was determined by the biuret assay using BSA as a standard.
Then, 1 μM FCCP was added at the end of all experiments to depolarize mitochondria. ΔΨ was calculated using a calibration curve obtained when RLM were incubated in a K^+-free reaction medium containing 200 mM sucrose, 1 mM NaH2PO4, 10 mM Tris (pH 7.4) and 10 μM EGTA, supplemented with 0.4 μg valinomicin. […] “Repolarization” corresponded to the recovery of membrane potential after the complete phosphorylation of ADP added. Lag phase reflected the time required to phosphorylate the added ADP. […] Data are means±SEM of five independent experiments.

Row | Structure (SMILES) | mitochondrial accumulation ratio [2] | ADP-induced depolarization (ΔΨ in - mV) ([3]; glutamate/malate, 2.5 μM) | Lag Phase ([3]; glutamate/malate, 2.5 μM) | Maximum potential (ΔΨ in - mV) ([3]; glutamate/malate, 2.5 μM) | Repolarization Potential (ΔΨ in - mV) ([3]; glutamate/malate, 2.5 μM) | ADP-induced depolarization (ΔΨ in - mV) ([3]; glutamate/malate, 5 μM) | Lag Phase ([3]; glutamate/malate, 5 μM) | Maximum potential (ΔΨ in - mV) ([3]; glutamate/malate, 5 μM) | Repolarization Potential (ΔΨ in - mV) ([3]; glutamate/malate, 5 μM) | ADP-induced depolarization (ΔΨ in - mV) ([3]; glutamate/malate, 10 μM) | Lag Phase ([3]; glutamate/malate, 10 μM) | Maximum potential (ΔΨ in - mV) ([3]; glutamate/malate, 10 μM) | Repolarization Potential (ΔΨ in - mV) ([3]; glutamate/malate, 10 μM) | ADP-induced depolarization (ΔΨ in - mV) ([3]; succinate, 2.5 μM) | Lag Phase ([3]; succinate, 2.5 μM) | Maximum potential (ΔΨ in - mV) ([3]; succinate, 2.5 μM) | Repolarization Potential (ΔΨ in - mV) ([3]; succinate, 2.5 μM) | ADP-induced depolarization (ΔΨ in - mV) ([3]; succinate, 5 μM) | Lag Phase ([3]; succinate, 5 μM) | Maximum potential (ΔΨ in - mV) ([3]; succinate, 5 μM) | further results
1 | CS(=O)(=O)[O-].O=C(/C=C/c1ccc(O)c(O)c1)NCCCCCC[P+](c1ccccc1)(c1ccccc1)c1ccccc1 [AntiOxCIN2, (E)-(6-(3-(3,4-dihydroxyphenyl)prop-2-enamido)hexyl)triphenylphosphonium methanesulfonate] | approximately the same accumulation ratio | 186.2 ± 8.9 mV | 81.2 ± 7.2 s | 208.4 ± 10.1 mV | 205.1 ± 9.0 mV | 199.2 ± 13.3 mV | 79.5 ± 7.0 s | 214.8 ± 11.7 mV | 214.0 ± 12.5 mV | 193.3 ± 9.1 mV | 88.7 ± 25.1 s | 209.8 ± 9.4 mV | 202.0 ± 8.0 mV | 169.3 ± 4.0 mV | 101.2 ± 7.5 s | 190.5 ± 5.9 mV | 191.5 ± 7.5 mV | 174.9 ± 5.5 mV | 64.6 ± 19.4 s | 189.7 ± 8.0 mV | iron (II) chelation ([1]; FIG. 2): higher iron chelation activity than caffeic acid itself; Repolarization Potential (ΔΨ in - mV) ([3]; succinate, 5 μM): 189.5 ± 9.0 mV; ADP-induced depolarization (ΔΨ in - mV) ([3]; succinate, 10 μM): 178.7 ± 6.3 mV; Lag Phase ([3]; succinate, 10 μM): 46.2 ± 12.4 s; Maximum potential (ΔΨ in - mV) ([3]; succinate, 10 μM): 190.0 ± 6.3 mV; Repolarization Potential (ΔΨ in - mV) ([3]; succinate, 10 μM): 186.6 ± 7.1 mV
2 | CS(=O)(=O)[O-].O=C(/C=C/c1cc(O)c(O)c(O)c1)NCCCCCC[P+](c1ccccc1)(c1ccccc1)c1ccccc1 [AntiOxCIN4, (E)-(6-(3-(3,4,5-trihydroxyphenyl)prop-2-enamido)hexyl)triphenylphosphonium methanesulfonate] | approximately the same accumulation ratio | 188.5 ± 9.6 mV | 84.7 ± 7.0 s | 214.6 ± 10.9 mV | 211.8 ± 10.1 mV | 193.8 ± 11.8 mV | 81.7 ± 6.7 s | 216.4 ± 13.1 mV | 216.1 ± 12.7 mV | 192.7 ± 14.4 mV | 65.7 ± 15.1 s | 216.8 ± 15.7 mV | 207.7 ± 15.6 mV | 171.2 ± 3.7 mV | 95.6 ± 7.5 s | 192.0 ± 4.0 mV | 192.7 ± 5.4 mV | 176.2 ± 5.0 mV | 97.8 ± 18.8 s | 197.6 ± 6.1 mV | iron (II) chelation ([1]; FIG. 2, methanesulfonate): higher iron chelation activity than caffeic acid itself; also recorded: remarkable iron-chelation property; Repolarization Potential (ΔΨ in - mV) ([3]; succinate, 5 μM): 195.4 ± 8.2 mV; ADP-induced depolarization (ΔΨ in - mV) ([3]; succinate, 10 μM): 170.3 ± 5.2 mV; Lag Phase ([3]; succinate, 10 μM): 101.4 ± 23.75 s; Maximum potential (ΔΨ in - mV) ([3]; succinate, 10 μM): 187.4 ± 8.5 mV; Repolarization Potential (ΔΨ in - mV) ([3]; succinate, 10 μM): 183.5 ± 10.5 mV
